Laboratory results taken from patent US4935579A, “Separation of m-diisopropylbenzene from p-diisopropylbenzene by azeotropic distillation with alcohols” (priority 1988, dated 1990).

Assays:
[1] = Vapor-liquid equilibrium still: relative volatility of m-DIPB to p-DIPB with alcohol agent and azeotrope boiling point; format: physicochemical; conditions: for Azeotrope B.P.: 640 mm. Hg; for Azeotrope B.P. / Relative Volatility (m-DIPB to p-DIPB): starting mixture 50 % alcohol, 25 % m-DIPB, 25 % p-DIPB; for Relative Volatility (m-DIPB to p-DIPB): vapor-liquid equilibrium still; for vapor composition, m-DIPB / vapor composition, p-DIPB: gas chromatography; for relative volatility of m-DIPB to p-DIPB: Examples 1 and 2, reflux thirteen or eleven hours
Source text: The data in Tables 2 and 3 were obtained in a vapor-liquid equilibrium still. In each case, the starting material was a mixture containing 50 % alcohol, 25 % m-DIPB and 25 % p-DIPB. The boiling points of the azeotropes at 640 mm. Hg are shown. The relative volatilities are listed for each of the alcohols investigated.
Forty grams of m-DIPB - p-DIPB mixture and 40 grams of diethylene glycol butyl ether were charged to an Othmer type vapor-liquid equilibrium still and refluxed for thirteen hours. Analysis by gas chromatography gave a vapor composition of 68.9% m-DIPB, 31.1% p-DIPB; a liquid decomposition of […], 36.8% p-DIPB. This indicates a relative volatility of m-DIPB to p-DIPB of 1.29.
Forty grams of m-DIPB - p-DIPB mixture and 40 grams of diethylene gylcol methyl ether were charged to the vapor-liquid equilibrium still and refluxed for eleven hours. Analysis indicated a vapor composition of 66.7% m-DIPB, 33.3% p-DIPB; a liquid composition of […] which is a relative volatility of 1.28.

[2] = Packed rectification column (Berl saddles, 2.3 theoretical plates), Fenske equation; format: physicochemical; conditions: 80 g m-DIPB, 20 g p-DIPB, 40 g agent, two hours total reflux
Source text: A solution comprising 80 grams of m-DIPB, 20 grams of p-DIPB and 40 grams of o-isopropyl phenol was placed in the stillpot and heated. After two hours of refluxing a total reflux, analysis was made by gas chromatography. The overhead composition was 78% m-DIPB, 22% p-DIPB and the stillpot analysis was 62.7% m-DIPB, 37.3% p-DIPB. Using these compositions in the Fenske equation with the number of theoretical plates in the column being 2.3 gave an average relative volatility of 1.34 for each theoretical plate.

[3] = no agent; prior art description; cited from earlier work
[4] = m-DIPB and p-DIPB, no agent; cited from earlier work
[5] = Boiling point and rectification of the isomers without agent; format: physicochemical; conditions: 99% purity, 75% efficiency, no agent
Protocol: In the manufacture of cumene, also called isopropylbenzene, by the alkylation of benzene with propylene, the most prevalent by-products are the diisopropylbenzenes with the meta and para isomers comprising most of the by-product. m-Diisopropylbenzene (m-DIPB) boils at 203.2° C. […] boils at 210.3° C. and these two have a relative volatility of 1.14. The difficulty of separating these two by rectification can be shown by the data in Table 1.
that rectification of m-DIPB from p-DIPB in 99% purity requires 95 actual plates. Using azeotropic distillation with an agent yielding a relative volatility of 1.29 would require only 48 actual plates.

[6] = 40 g m-DIPB - p-DIPB mixture and 40 g agent

Molecule | Relative Volatility (m-DIPB to p-DIPB) [1] | Azeotrope B.P. [1] | other results
CCOCCOCCO [Diethylene glycol ethyl ether] | 1.25 | 185 °C | –
Cc1ccccc1O [o-Cresol] | 1.26 | 184 °C | –
OCc1ccccc1 [Benzyl alcohol] | 1.11 | – | –
Dipropylene glycol methyl ether | – | 186 °C | –
CC(C)c1ccc(C(C)C)cc1 [p-DIPB, p-diisopropylbenzene] | – | – | boiling point [3]: 210.3 °C
CCCCOCCOCC(C)O (stereo not drawn) [Butoxyethoxypropanol] | 1.17 | 199 °C | –
Oc1ccccc1 [Phenol] | 1.24 | 174 °C | –
CCC(C)c1ccccc1O (stereo not drawn) [o-sec. Butyl phenol] | 1.23 | 205 °C | –
OCC1CCCO1 (stereo not drawn) [Tetrahydrofurfuryl alcohol] | 1.21 | 171 °C | –
CC(O)CO (stereo not drawn) [Propylene glycol] | 1.28 | 168 °C | –
OCCOc1ccccc1 [Ethylene glycol phenyl ether] | 1.14 | – | –
CC(C)c1cccc(C(C)C)c1 [m-DIPB, m-Diisopropylbenzene] | – | – | relative volatility used in column calibration [4]: 1.14; actual plates required for rectification of m-DIPB from p-DIPB [5]: 95 actual plates; boiling point [3]: 203.2 °C; relative volatility of m-DIPB and p-DIPB without agent [3]: 1.14
CCCCOCCO [Ethylene glycol butyl ether] | 0.6 | – | –
Cc1cccc(O)c1 [m-Cresol] | 1.17 | 189 °C | –
CC(C)(C)c1ccccc1O [o-tert. Butyl phenol] | 1.20 | 205 °C | –
COCCOCCO [Diethylene glycol methyl ether] | 1.28 | 182 °C | liquid composition, m-DIPB [1, 6]: 60.9%; vapor composition, m-DIPB [1, 6]: 66.7%; vapor composition, p-DIPB [1, 6]: 33.3%; relative volatility of m-DIPB to p-DIPB [1, 6]: 1.28

The next lines start with results.

Relative Volatility (m-DIPB to p-DIPB) [1] | Molecule | Azeotrope B.P. [1] | other results
1.06 | OCCc1ccccc1 [Phenethyl alcohol] | – | –
1.26 | CCCCCCOCCO [Ethylene glycol hexyl ether] | 195 °C | –
1.34 | CC(C)c1ccccc1O [o-Isopropyl phenol] | 200 °C | overhead composition, m-DIPB [2]: 78%; overhead composition, p-DIPB [2]: 22%; stillpot composition, m-DIPB [2]: 62.7%; stillpot composition, p-DIPB [2]: 37.3%; average relative volatility for each theoretical plate ([2]; Fenske equation, 2.3 plates): 1.34
1.15 | CC(C)CCCCCO [Isooctanol] | – | –
1.23 | CCCCCCCCCO [n-Nonyl alcohol] | 196 °C | –
1.22 | CC(C)CCCCCCO [Isononyl alcohol] | 194 °C | –
1.10 | CCCCCCO [n-Hexanol] | – | –
1.20 | CC(C)CC(O)CC(C)C [Diisobutyl carbinol] | 180 °C | –
1.14 | CCCCCCCCO [1-Octanol] | – | –
1.25 | Cc1ccc(O)cc1 [p-Cresol] | 188 °C | –
1.13 | CC(=O)CC(C)(C)O [Diacetone alcohol] | – | –
1.29 | CCCCOCCOCCO [Diethylene glycol butyl ether] | 200 °C | liquid composition, m-DIPB [1, 6]: 63.2%; liquid composition, p-DIPB (second figure) [1, 6]: 36.8%; vapor composition, m-DIPB [1, 6]: 68.9%; vapor composition, p-DIPB [1, 6]: 31.1%; relative volatility of m-DIPB to p-DIPB [1, 6]: 1.29
1.10 | CCCCCCC(C)O (stereo not drawn) [2-Octanol] | – | –
1.27 | CCCCC(CC)CO (stereo not drawn) [2-Ethyl hexanol] | 183 °C | Relative Volatility of alcohol:DIPB mixture ([1]; one part agent with one part m-DIPB - p-DIPB mixture): 1.27
